These results are taken from patent US10632106B2, “Methods of cancer treatment with 2-(1′H-Indole-3′-carbonyl)-thiazole-4-carboxylic acid methyl ester” (Ariagen, Inc., priority 2009, dated 2020).

The AUC is the area under the concentration-time curve, a measure of exposure. Higher therefore signals more exposure. The half-life is how long it takes for the measured level to halve. Read a low half-life as rapid decline.

A short description of series [1]: PK studies of ITE in male nude mice (single dosing). The class given is in vivo. The note with it: for AUC / half-life: male, nude, mouse, plasma. The procedure:
Male nude mice were also used in PK (pharmacokinetic) studies. For i.v. injection, ITE at 1 mg/kg b.w. was administered with DMSO as vehicle via tail vein. For i.p. Injection, ITE at 10, 40, and 80 mg/kg b.w. was delivered with DMSO via lower left abdominal quadrant. In p.o. injection, ITE at 40 and 80 mg/kg b.w. were administered with a vehicle of Labrasol:PEG 400 (2:8, v/v) via oral gavage. Every 15 mice were given a single injection at each dosing level and every 3 of the dosed mice were used to collect blood sample at each time point (0, 0.083, 0.25, 0.5, 1, 2, 4, 8, 24 hr.). Animals were rotated to be sampled twice each but the duration between the two sampling times was at least 110 min. The animal was anesthetized under Isoflurane and restrained manually. Approximately 150 μl of whole blood at each time point is collected (via retro-orbital puncture) into a K2-EDTA tube. Blood samples were put on ice and processed to plasma (4,000 g, 5 min, 4° C.) within 15 min post sampling. Plasma samples were stored at −80° C. until analysis. An aliquot of 20 μl plasma sample was added with 20 μl of an internal standard (Glipizide, 500 ng/ml in ΔCN, for extraction efficiency) to 120 μl of ΔCN (acetonitrile). The mixture was vortexed at 1,500 rpm for 2 min. and then centrifuged at 12,000 rpm for 5 min. Five (5) μl of the supernatant was injected into an LC-MS/MS system (API 4000, Foster City, Calif., USA). A Gemini-C18 column (2.0×50 mm, 5 μm) was used and the LC (liquid chromatography) was run at a flow rate of 0.45 ml/min. with the following program: where Pump A was for 1 mM NH4OAc (ammonium acetate) in water plus 0.025% FA (formic acid) whereas Pump B for 1 mM NH4OAC in acetonitrile plus 0.025% FA. The negative ionization process of the mass spectrometry was operated at an APCI (Atmospheric Pressure Chemical Ionization) mode while the detection at a MRM (Multiple Reaction Monitoring) mode. ITE was identified by recognizing an LC retention time of 2.5 min. and two mass peaks at 285.0 (before collision) and 142.0 m/z (after collision) while the internal standard of 2.35 min. and two mass peaks at 444.3 (before collision) and 319.3 m/z (after collision). ITE was quantified by a standard curve generated every time by a series of known quantities of ITE running through both the extraction/precipitation process after mixing with mouse plasma and the LC-MS/MS system. The WinNonlin V5.2 statistics software (Pharsight Corporation, California, USA) was used to generate PK parameters such as Cmax, Tmax, T1/2, and AUC (Area under Curve) etc. using a non-compartmental model. Results

For series [2], the system named is U14 (mouse cervical cancer) homografts. Nature of the series: U14 homograft (syngeneic) growth inhibition in ICR mice. It counts as in vivo. The note with it: ITE 200 mg/kg i.p. once daily. The procedure: All the procedures related to animal handling, care, and the treatment in the study were performed following guidelines of KeyGen Biotechn Co., Ltd. (Nanjing, China), a contract research organization we hired, based on the guidance of the Association for Assessment and Accreditation of Laboratory Animal Care (AAALAC). Animals were checked for any effects of tumor growth and drug treatment on normal behavior such as mobility, food and water consumption, body weight gain/loss (bodyweights were measured every two days), eye/hair matting, and any other abnormal effect. Death and observed clinical signs were recorded. Individual animals with a tumor volume exceeding 3,000 mm^3 or animals of a group with a mean tumor volume exceeding 2,000 mm^3 were euthanized. In addition, animals showing signs of severe distress and/or pain or losing the capability of accessing adequate food or water were humanely sacrificed.
Cell lines HCT116, Siha, MFC were cultured in DMEM medium (high glucose) supplemented with 10% fetal bovine serum (FBS), SW116 and T24 in RPMI-1640 medium with 10% FBS, M14 and A375 in DMEM medium (high glucose) with 10% calf serum (CS), SGC7901 and Ketr-3 in RPMI-1640 medium with 10% CS, and CFPAC-1 in IMDM medium with 10% FBS. All of the cells were cultured, in the presence of 100 U/ml penicillin and 100 μg/ml streptomycin, at 37° C. in an atmosphere of 5% CO2 in air. […] The cells growing in an exponential phase were harvested and counted for tumor inoculation. Cell lines 5180 and U14 were maintained in ascites (peritoneal cavity fluid) of mice and were harvested and counted for tumor inoculation. […]
Tumor volume was measured every two days in two dimensions using a caliper and the volume was calculated with a formula of: V=0.5 a×b^2, where a and b are the long and short diameter (in mm) of a tumor, respectively. […] The TGD was calculated as: TGD=T−C, where T was the time (in days) required for tumors in a drug treated group to reach a predetermined mean tumor volume and C the time (in days) in the control group to reach the same volume. […]

[3] abbreviates: iv, 1 mg/kg b.w. bolus i.v. in DMSO.

With `COC(=O)c1csc(C(=O)c2c[nH]c3ccccc23)n1` [ITE, 2-(1′H-indole-3′-carbonyl)-thiazole-4-carboxylic acid methyl ester], in series [1] (i.p. injection in DMSO), the “efficiency of absorption compared with i.v. injection” value is on record as “below 10%”. In addition, the AUC in series [1] (ip, 10 mg/kg b.w. i.p. in DMSO) is 197 ng·h/mL; in series [1] (ip, 40 mg/kg b.w. i.p. in DMSO), 332 ng·h/mL; in series [1] (ip, 80 mg/kg b.w. i.p. in DMSO) it was 499 ng·h/mL; in series [1] (setting [3]), 256 ng·h/mL; in series [1] (po, 40 mg/kg b.w. p.o. in Labrasol:PEG 400 (2:8, v/v)) it was 107 ng·h/mL; in series [1] (po, 80 mg/kg b.w. p.o. in Labrasol:PEG 400 (2:8, v/v)), 97 ng·h/mL. Further, the half-life in series [1] (ip, 10 mg/kg b.w. i.p. in DMSO) was 1.13 h; in series [1] (ip, 40 mg/kg b.w. i.p. in DMSO) it was 1.61 h; in series [1] (ip, 80 mg/kg b.w. i.p. in DMSO), 5.17 h; in series [1] (setting [3]), 0.1 h. Further, the absorption efficiency entry in series [1] (p.o. in Labrasol:PEG 400 (2:8, v/v)) is “around 1%”. In series [2] (TGD at Vol. 2,000), this compound returned a TGD of 3 days. In addition, the “TGI (%)” value in series [2] (TGI at day 6, TGI=(1−ΔT/ΔC)×100%) is 46%. Moreover, the “Weight Loss” value in series [2] (end of therapy relative to beginning) was found to be 4%.
